Legend:
Type in all cases: cell-based
[1] = tested on: KA-insulted primary cultured rat cortical cells; assay: Neuroprotection against KA-induced toxicity, cell viability by MTT assay; details: for Viability (%) KA-insulted: compound 1 µM for 1 hr, then 50 µM KA, 24 hr
Method: Primary cultures of mixed cortical cells containing both neuron and glia were prepared from fetal rats as described previously (Kim Y C, Kim S R, Markelonis G J and Oh T H (1998) Ginsenosides Rb1 and Rg3 protect cultured rat cortical cells from glutamate-induced neurodegeneration. J. Neurosci. Res. 53: 426-432).
The cortical cells were plated onto collagen-coated dishes at a density of 1×10^6 cells/ml. The cultured cells were grown in DMEM supplemented with 10% heat-inactivated fetal calf serum, 1 mM sodium pyruvate, 100 IU/ml pecicillin and 100 μg/ml streptomycin at 37° C. in a humidified atmosphere of 95% air/5% CO2. cultures were allowed to mature for 2 weeks before being used for experiments.
To culture broth of the cortical cells during being cultured, MTT(5 mg/ml) was added by 10% of the culture broth. The broth was cultured for more 3 hours. The formed formazan was dissolved by DMSO and was assayed absorption at 540 nm ((Mosmann T (1983) Rapid colorimetric assay for cellular growth and survival: Application to proliferation and cytotoxicity assays. J. Immuno. Methods 65: 55-61)
Glutamate receiptor is divided into NMDA receiptor which is activated by NMDA and non-NMDA receiptor which is activated by alpha-amino-3-hydroxy-5-methyl-4-isoxazole and kainic acid (KA). To first cultured cortical cells, the above compounds were each treated. The neuro-protective activities of the compounds were measured, after toxicities were induced by NMDA, the NMDA receiptor agonist, or KA, the non-NMDA receiptor agonist.
Rat cortical cultures were treated with compounds at the concentration of 1 M for 1 hr. The cultures were then exposed to 50 µM NMDA or 50 µM KA and were maintained for an additional 24 hr. […]. Cell viability was measured by the MTT assay. Optical density of control, NMDA- and KA treated were 1.20±0.10, 0.77±0.05 and 0.85±0.08, respectively. Viability was calculated as the same as Table 1. Values given represent the mean SD (n=3).

[2] = tested on: GSH-px activity in glutamate-injured primary cultured rat cortical cells; assay: Measurement of glutathione peroxidase activity (GSH-px); details: 24 hr; for GSH-px: compound 1 µM for 1 hr before 100 µM glutamate, control 18.7, glutamate-treated 9.2; for Protection (GSH-px activity): compound 1 M (1 uM) for 1 hr before 100 M glutamate
Method: (§1) Cells were collected by adding 0.1M potassium phosphate buffer (pH 7.4) to culture-broth-removed remainings from first cultured cortical cells. The collected cells were treated by supersonic wave for 20 seconds and were centrifuged at 4° C. with 3,000 g for 20 minutes to obtain the supernatant.
1 ml solution in test tube comprising 100 mM potassium phosphate buffer (pH 7.4), 1 mM reduced glutathione (GSH), 0.2 mM NADPH, 0.5 mM H2O2 and 1.5 units/ml of GSSG-reductase (GSSG-r) was prepared and 10 μl of cell supernatant was added and reacted. The loss of adsoption at 340 nm was assayed and the activity of GSH-px was measured.
(§2) In case glutamate is treated to first cultured cortical cells of mice, formation of NO is increased. […] When schizandrin is treated at the 1 μM concentration, it decreased NO content increased by glutamate. […] When deoxyschizandrin, gomisin N and wuweizisu C are treated at 1 uM concentration to first cultured cortical cells toxicity-induced by glutamate, those maintained about 50% of normal state activity of GSH-px and glutathione decreased by glutamate and have protective activity on the activity of antioxidant enzymes.
(§3) Rat cortical cultures were treated with compounds at the concentration of 1 M for 1 hr before exposure to 100 M glutamate and then maintained for 24 hr. Values given represent the mean SD (n=3).

[3] = tested on: GSH content in glutamate-injured primary cultured rat cortical cells; assay: Measurement of total GSH (GSH+GSSG); details: 24 hr; for GSH: compound 1 µM for 1 hr before 100 µM glutamate, control 6.9, glutamate-treated 2.6; for Protection (GSH content): compound 1 M (1 uM) for 1 hr before 100 M glutamate
Method: as §1
In test tube, 70 μl solution containing 0.3 mM NADPH and 5 mM DTNB was prepared 0.100 μl of cell supernatant was added and final content 5 units/ml of GSSG-R was added thereto and was reacted. The increase of adsorption was measured at 412 nm for 1 minute. The content of GSH was converted and obtained by comparing the content of GSH with GSH standard. (Tietze F, Enzymatic method for quantative determination of nanogram amounts of total and oxidized glutathione, Anal Biochem 27: 502-522).
as §2, §3

[4] = tested on: MDA content in glutamate-injured primary cultured rat cortical cells; assay: Measurement of malondialdehyde (MDA) content, lipid peroxidation; details: for Protection (MDA content, lipid-peroxidation) / MDA: compound 1 µM for 1 hr before 100 µM glutamate, 24 hr; for MDA: control 70.2, glutamate-treated 198.2
Method: as §1
To 500 μl of cell supernatant, 500 μl of 10% trichroroacetic acid(TCA) was added and leaved for 10 minutes. The precipitated protain was removed by using centrifuge. To the supernatant, final concentration of 0.2% of thiobarbituric acid is added to prepare 1 ml of solution and reacted at 100° C. for 1 hour. Adsorption was measured at 535 nm and converted and obtained by comparing the contents of MDA with 1,1,3,3-tetraethoxypropane as standard. (Yagi K A, 1976, Simple fluorometric assay for lipoperoxide in blood plasma, Biochem Med 15: 212-216).
NO which is over-formed by glutamate and superoxide anion are each combined to form peroxynitrite. (Almeida et al. 1998). Such formed peroxynitrite with free radical which is formed by glutamate toxicity induce oxidative stress on neurons and induce lipid-peroxidation of cells. Wuweizusu C suppressed 67% of lipid-peroxidation induced by glutamate.
as §3

SMILES	Viability (%) KA-insulted [1]	GSH-px [2]	Protection (GSH-px activity) [2]	Protection (GSH-px activity) ([2]; listed as gomisin N)	GSH [3]	Protection (GSH content) [3]	Protection (GSH content) ([3]; listed as gomisin N)	suppression of lipid-peroxidation induced by glutamate (in words) [4]	Protection (MDA content, lipid-peroxidation) [4]	MDA [4]	Protection (GSH-px activity) ([2]; listed as wuweizisu C)	Protection (GSH content) ([3]; listed as wuweizisu C)	Protection (MDA content, lipid-peroxidation) ([4]; listed as Wuweizusu C)	neuroprotective activity against toxicity induced by KA (in words) [1]	Protection (GSH-px activity) ([2]; listed as deoxyschizandrin)	Protection (GSH content) ([3]; listed as deoxyschizandrin)
COc1cc2c(c(OC)c1OC)-c1c(cc3c(c1OC)OCO3)C[C@H](C)[C@H](C)C2 [Gomisin N, gomisin N]	25.5 ± 4.5%	14.6 ± 4.1 μmol NADPH consumed/min/mg pro	56.8%	about 50%	4.8 ± 1.3 μmol/mg protein	51.2%	about 50%	significantly suppressed	57.0%	125.6 ± 11.1 nmol/mg protein	–	–	–	–	–	–
COc1c2c(cc3c1-c1c(cc4c(c1OC)OCO4)C[C@H](C)[C@H](C)C3)OCO2 [Wuweizisu C, wuweizisu C]	15.0 ± 3.9%	13.9 ± 3.9 μmol NADPH consumed/min/mg pro	49.5%	–	4.4 ± 0.9 μmol/mg protein	41.9%	–	–	68.7%	110.5 ± 9.0 nmol/mg protein	about 50%	about 50%	67%	–	–	–
COc1cc2c(c(OC)c1OC)-c1c(cc(OC)c(OC)c1OC)C[C@H](C)[C@H](C)C2 [Deoxyschizandrin, deoxyschizandrin]	38.2 ± 4.2 %	15.3 ± 3.0 μmol NADPH consumed/min/mg pro	62.1%	–	4.7 ± 1.1 μmol/mg protein	48.8%	–	significantly suppressed	49.2%	135.4 ± 10.7 nmol/mg protein	–	–	–	selectively neuroprotective activity	about 50%	about 50%

Reference: US6653344B2, “Pharmaceutical preparations containing a dibenzocyclooctane lignan derivative for treatment of neurodegenerative disease” (Elcom Bio Technology Co., Ltd., priority 2000, dated 2003)
